Results published in ChEMBL document CHEMBL4038272, “Synthesis and biological evaluation of novel podophyllotoxin-NSAIDs conjugates as multifunctional anti-MDR agents against resistant human hepatocellular carcinoma Bel-7402/5-FU cells” (Eur J Med Chem, 2017).
Calls of active or inactive are those of the source. The rule behind the calls is not given here.

Experiments:
Bel7402/5-FU [1] = test: Effect on cyclinA expression in human Bel7402/5-FU cells assessed as ratio of cyclinA to beta-actin level at 2 uM after 48 hrs by Western blot analysis (reference value: 0.39); type: functional
Bel7402/5-FU [2] = test: Effect on P-gp expression in human Bel7402/5-FU cells assessed as ratio of P-gp to beta-actin level at 2 uM after 48 hrs by Western blot analysis (reference value: 0.59); type: functional
Bel7402/5-FU [3] = test: Induction of apoptosis in human Bel7402/5-FU cells assessed as late apoptotic cells at 2 uM after 48 hrs by Annexin V-APC/7-AAD staining based flow cytometry (reference value: 3%); type: functional
Bel7402/5-FU [4] = test: Induction of apoptosis in human Bel7402/5-FU cells assessed as live cells at 2 uM after 48 hrs by Annexin V-APC/7-AAD staining based flow cytometry (reference value: 91.08%); type: functional
Bel7402/5-FU [5] = test: Effect on VEGFR2 expression in human Bel7402/5-FU cells assessed as ratio of VEGFR2 to beta-actin level at 2 uM after 48 hrs by Western blot analysis (reference value: 0.25); type: functional
Bel7402/5-FU [6] = test: Induction of apoptosis in human Bel7402/5-FU cells assessed as ratio of cleaved PARP to beta-actin level at 2 uM after 48 hrs by Western blot analysis (reference value: 0.2); type: functional
Bel7402/5-FU [7] = test: Induction of apoptosis in human Bel7402/5-FU cells assessed as condensed nuclei at 2 uM after 24 hrs by Hoechst 33342 staining based fluorescent microscopic method; type: functional, cell-based
[8] = biological target: Mitogen-activated protein kinase; ERK1/ERK2 (Homo sapiens) (UniProt P27361+P28482); test: Effect on ERK1/2 phosphorylation in human Bel7402/5-FU cells assessed as ratio of phosphorylated ERK1/2 to beta-actin level at 2 uM after 48 hrs by Western blot analysis (reference value: 0.59); type: cell-based
Bel7402/5-FU [9] = test: Antiproliferative activity against human Bel7402/5-FU cells after 72 hrs by CCK-8 assay; type: functional, cell-based
Bel7402/5-FU [10] = test: Effect on E-cadherin expression in human Bel7402/5-FU cells assessed as ratio of E-cadherin to beta-actin level at 2 uM after 48 hrs by Western blot analysis (reference value: 0.2); type: functional
Bel7402/5-FU [11] = test: Induction of apoptosis in human Bel7402/5-FU cells at 2 uM after 24 hrs by Hoechst 33342 staining based fluorescent microscopic method; type: functional, cell-based
Bel7402/5-FU [12] = test: Effect on MRP1 expression in human Bel7402/5-FU cells assessed as ratio of MRP1 to beta-actin level at 2 uM after 48 hrs by Western blot analysis (reference value: 0.58); type: functional
Bel7402/5-FU [13] = test: Reduction in microtubule density in human Bel7402/5-FU cells at 2 uM after 24 to 48 hrs by DAPI staining based immunofluorescence microscopic method; type: functional, cell-based
Bel7402/5-FU [14] = test: Effect on COX2 expression in human Bel7402/5-FU cells assessed as ratio of COX2 to beta-actin level at 2 uM after 48 hrs by Western blot analysis (reference value: 0.36); type: functional
Bel7402/5-FU [15] = test: Induction of apoptosis in human Bel7402/5-FU cells assessed as ratio of cleaved caspase-9 to beta-actin level at 2 uM after 48 hrs by Western blot analysis (reference value: 0.17); type: functional
[16] = biological target: RAC-alpha serine/threonine-protein kinase (Homo sapiens) (UniProt P31749); test: Effect on AKT phosphorylation in human Bel7402/5-FU cells assessed as ratio of phosphorylated AKT to beta-actin level at 2 uM after 48 hrs by Western blot analysis (reference value: 0.39); type: cell-based
Bel7402/5-FU [17] = test: Cell cycle arrest in human Bel7402/5-FU cells assessed as accumulation at S phase at 2 uM after 48 hrs by propidium iodide staining based flow cytometry (reference value: 12.62%); type: functional
Bel7402/5-FU [18] = test: Effect on CDK2 expression in human Bel7402/5-FU cells assessed as ratio of CDK2 to beta-actin level at 2 uM after 48 hrs by Western blot analysis (reference value: 0.43); type: functional
Bel7402/5-FU [19] = test: Effect on iNOS expression in human Bel7402/5-FU cells assessed as ratio of iNOS to beta-actin level at 2 uM after 48 hrs by Western blot analysis (reference value: 0.13); type: functional
Bel7402/5-FU [20] = test: Induction of apoptosis in human Bel7402/5-FU cells assessed as morphological changes at 2 uM after 24 hrs by Hoechst 33342 staining based fluorescent microscopic method; type: functional, cell-based
Bel7402/5-FU [21] = test: Induction of apoptosis in human Bel7402/5-FU cells assessed as ratio of cleaved caspase-8 to beta-actin level at 2 uM after 48 hrs by Western blot analysis (reference value: 0.17); type: functional
Bel7402/5-FU [22] = test: Induction of apoptosis in human Bel7402/5-FU cells assessed as reduction in cell number at 2 uM after 24 hrs by Hoechst 33342 staining based fluorescent microscopic method; type: functional
[23] = biological target: Signal transducer and activator of transcription 3 (Homo sapiens) (UniProt P40763); test: Effect on STAT3 phosphorylation in human Bel7402/5-FU cells assessed as ratio of phosphorylated STAT3 to beta-actin level at 2 uM after 48 hrs by Western blot analysis (reference value: 0.3); type: cell-based
[24] = Resistant factor, ratio of IC50 for human Bel7402/5-FU cells to IC50 for human Bel7402 cells; type: functional
Bel7402/5-FU [25] = test: Effect on MMP2 expression in human Bel7402/5-FU cells assessed as ratio of MMP2 to beta-actin level at 2 uM after 48 hrs by Western blot analysis (reference value: 0.3); type: functional
Bel7402/5-FU [26] = test: Effect on cyclinB1 expression in human Bel7402/5-FU cells assessed as ratio of cyclinB1 to beta-actin level at 2 uM after 48 hrs by Western blot analysis (reference value: 0.53); type: functional
Bel7402/5-FU [27] = test: Induction of microtubule disruption in human Bel7402/5-FU cells at 2 uM after 24 to 48 hrs by DAPI staining based immunofluorescence microscopic method; type: functional, cell-based
Bel7402/5-FU [28] = test: Antimigratory activity in human Bel7402/5-FU cells at 2 uM after 24 hrs by wound healing assay; type: functional, cell-based
Bel7402/5-FU [29] = test: Induction of apoptosis in human Bel7402/5-FU cells assessed as necrotic cells at 2 uM after 48 hrs by Annexin V-APC/7-AAD staining based flow cytometry (reference value: 0.58%); type: functional
Bel7402/5-FU [30] = test: Cell cycle arrest in human Bel7402/5-FU cells assessed as accumulation at G1 phase at 2 uM after 48 hrs by propidium iodide staining based flow cytometry (reference value: 52.21%); type: functional
Bel7402/5-FU [31] = test: Induction of apoptosis in human Bel7402/5-FU cells assessed as early apoptotic cells at 2 uM after 48 hrs by Annexin V-APC/7-AAD staining based flow cytometry (reference value: 5.24%); type: functional
Bel7402/5-FU [32] = test: Effect on COX1 expression in human Bel7402/5-FU cells assessed as ratio of COX1 to beta-actin level at 2 uM after 48 hrs by Western blot analysis (reference value: 0.48); type: functional
Bel7402/5-FU [33] = test: Induction of apoptosis in human Bel7402/5-FU cells assessed as ratio of cleaved caspase-3 to beta-actin level at 2 uM after 48 hrs by Western blot analysis (reference value: 0.19); type: functional
Bel7402/5-FU [34] = test: Cell cycle arrest in human Bel7402/5-FU cells assessed as accumulation at G2 phase at 2 uM after 48 hrs by propidium iodide staining based flow cytometry (reference value: 35.16%); type: functional
L02 = test: Antiproliferative activity against human LO2 cells after 72 hrs by CCK-8 assay; type: cell-based; details: L02, 72 h
Bel-7402 = test: Antiproliferative activity against human Bel7402 cells after 72 hrs by CCK-8 assay; type: functional, cell-based; details: Bel-7402, 72 h
Bel7402/5-FU [35] = test: Effect on CDK1 expression in human Bel7402/5-FU cells assessed as ratio of CDK1 to beta-actin level at 2 uM after 48 hrs by Western blot analysis (reference value: 0.33); type: functional

Mitogen-activated protein kinase; ERK1/ERK2 (Homo sapiens), sequence (P27361 whole entry, looked up): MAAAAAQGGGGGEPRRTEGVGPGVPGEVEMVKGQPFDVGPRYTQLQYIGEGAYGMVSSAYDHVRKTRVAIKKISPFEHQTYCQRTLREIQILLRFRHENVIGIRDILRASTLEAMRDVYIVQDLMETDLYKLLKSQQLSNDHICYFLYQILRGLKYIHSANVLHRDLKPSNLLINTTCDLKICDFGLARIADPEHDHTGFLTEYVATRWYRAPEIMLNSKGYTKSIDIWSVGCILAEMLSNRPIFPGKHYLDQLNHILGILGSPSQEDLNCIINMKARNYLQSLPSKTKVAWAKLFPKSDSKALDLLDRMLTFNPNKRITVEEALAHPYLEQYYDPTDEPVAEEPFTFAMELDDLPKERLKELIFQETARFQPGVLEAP
Mitogen-activated protein kinase; ERK1/ERK2 (Homo sapiens), sequence (P28482 whole entry, looked up): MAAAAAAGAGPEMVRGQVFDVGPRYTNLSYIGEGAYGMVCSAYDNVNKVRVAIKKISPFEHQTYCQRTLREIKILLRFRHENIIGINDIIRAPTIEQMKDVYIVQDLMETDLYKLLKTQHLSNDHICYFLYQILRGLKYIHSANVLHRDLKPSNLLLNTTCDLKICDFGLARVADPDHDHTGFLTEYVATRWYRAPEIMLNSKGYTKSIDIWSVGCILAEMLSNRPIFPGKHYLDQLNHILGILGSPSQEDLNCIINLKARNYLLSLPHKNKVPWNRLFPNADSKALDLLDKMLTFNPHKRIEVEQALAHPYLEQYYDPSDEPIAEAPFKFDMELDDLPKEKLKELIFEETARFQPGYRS
Signal transducer and activator of transcription 3 (Homo sapiens), sequence (P40763 whole entry): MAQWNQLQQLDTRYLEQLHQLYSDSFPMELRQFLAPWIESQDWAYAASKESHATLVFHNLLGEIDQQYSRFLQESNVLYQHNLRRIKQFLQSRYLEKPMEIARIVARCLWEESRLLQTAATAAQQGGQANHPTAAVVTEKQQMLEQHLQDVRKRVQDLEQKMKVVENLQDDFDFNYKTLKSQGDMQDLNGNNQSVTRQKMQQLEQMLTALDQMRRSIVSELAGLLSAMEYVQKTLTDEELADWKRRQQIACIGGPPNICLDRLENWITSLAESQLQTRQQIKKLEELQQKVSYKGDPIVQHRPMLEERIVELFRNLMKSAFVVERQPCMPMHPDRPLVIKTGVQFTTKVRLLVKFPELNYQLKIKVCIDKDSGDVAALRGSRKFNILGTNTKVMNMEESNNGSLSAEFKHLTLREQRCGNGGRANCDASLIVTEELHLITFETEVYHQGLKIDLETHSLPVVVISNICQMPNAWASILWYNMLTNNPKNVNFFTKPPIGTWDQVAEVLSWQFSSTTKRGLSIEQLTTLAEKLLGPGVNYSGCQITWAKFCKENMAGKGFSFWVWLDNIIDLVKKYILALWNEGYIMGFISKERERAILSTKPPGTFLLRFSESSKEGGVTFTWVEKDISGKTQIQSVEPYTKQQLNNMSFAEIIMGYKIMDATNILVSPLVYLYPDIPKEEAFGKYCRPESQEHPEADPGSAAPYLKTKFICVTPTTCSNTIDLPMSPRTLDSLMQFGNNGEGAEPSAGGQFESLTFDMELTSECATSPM
RAC-alpha serine/threonine-protein kinase (Homo sapiens), sequence (P31749 whole entry): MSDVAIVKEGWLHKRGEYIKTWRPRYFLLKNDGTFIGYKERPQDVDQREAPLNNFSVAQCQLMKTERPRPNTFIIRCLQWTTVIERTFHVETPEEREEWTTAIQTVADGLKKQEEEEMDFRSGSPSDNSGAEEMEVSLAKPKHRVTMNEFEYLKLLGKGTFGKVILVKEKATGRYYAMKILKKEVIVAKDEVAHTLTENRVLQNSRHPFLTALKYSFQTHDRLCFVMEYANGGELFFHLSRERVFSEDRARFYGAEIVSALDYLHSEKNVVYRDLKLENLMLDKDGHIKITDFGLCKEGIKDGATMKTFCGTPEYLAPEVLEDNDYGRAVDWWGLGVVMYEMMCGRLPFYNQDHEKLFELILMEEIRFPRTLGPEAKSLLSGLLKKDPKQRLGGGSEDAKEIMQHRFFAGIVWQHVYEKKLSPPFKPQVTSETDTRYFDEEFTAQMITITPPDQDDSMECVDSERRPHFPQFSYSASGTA

## COc1ccc2c(c1)c(CC(=O)O[C@H]1c3cc4c(cc3[C@@H](c3cc(OC)c(OC)c(OC)c3)[C@H]3C(=O)OC[C@@H]31)OCO4)c(C)n2C(=O)c1ccc(Cl)cc1
Bel7402/5-FU [1]
  Ratio: 0.26
Bel7402/5-FU [2]
  Ratio: 0.63
Bel7402/5-FU [3]
  Activity: 20.65%
Bel7402/5-FU [4]
  Activity: 66.98%
Bel7402/5-FU [5]
  Ratio: 0.17
Bel7402/5-FU [6]
  Ratio: 0.35
Bel7402/5-FU [7]
  Activity: Active
[8]
  Ratio: 0.54
Bel7402/5-FU [9]
  IC50: 2160 nM
Bel7402/5-FU [10]
  Ratio: 0.2
Bel7402/5-FU [11]
  Activity: Active
Bel7402/5-FU [12]
  Ratio: 0.39
Bel7402/5-FU [13]
  Activity: Active
Bel7402/5-FU [14]
  Ratio: 0.36
Bel7402/5-FU [15]
  Ratio: 0.33
[16]
  Ratio: 0.4
Bel7402/5-FU [17]
  Activity: 21.81%
Bel7402/5-FU [18]
  Ratio: 0.37
Bel7402/5-FU [19]
  Ratio: 0.12
Bel7402/5-FU [20]
  Activity: Active
Bel7402/5-FU [21]
  Ratio: 0.33
Bel7402/5-FU [22]
  Activity: Active
[23]
  Ratio: 0.37
[24]
  Ratio IC50: 0.36
Bel7402/5-FU [25]
  Ratio: 0.28
Bel7402/5-FU [26]
  Ratio: 0.51
Bel7402/5-FU [27]
  Activity: Active
Bel7402/5-FU [28]
  Activity: Active
Bel7402/5-FU [29]
  Activity: 7.18%
Bel7402/5-FU [30]
  Activity: 27.1%
Bel7402/5-FU [31]
  Activity: 5.19%
Bel7402/5-FU [32]
  Ratio: 0.42
Bel7402/5-FU [33]
  Ratio: 0.45
Bel7402/5-FU [34]
  Activity: 51.09%
L02
  IC50: 1860 nM
Bel-7402
  IC50: 5900 nM
Bel7402/5-FU [35]
  Ratio: 0.3
